Data taken from patent US20230295212A1 (ROME Therapeutics, Inc., priority 2022, published 2023).

molecular target: T1, LINE1 reverse transcriptase (Homo sapiens, UniProt O00370); assay: Stable artificial-intron Cis LINE1 reporter assay (HeLa Tet-On 3G, Firefly luciferase); type: cell-based; settings: HeLa L1 artificial-intron reporter cells, doxycycline 500 ng/mL, 72 h, class symbols
T1 construct: expressed in transfected cells; host or cells: HeLa Tet-On 3G (Takara, cat no 631183)
Protocol: Exemplary compounds, were tested for the ability to inhibit LINE1 reverse transcriptase using a stable artificial-intron Cis LINE1 reporter assay. Assay procedures and results are described below.
A stable HeLa Tet-On 3G (Takara, cat no 631183) cell line expressing a bi-directional inducible LINE1 construct was generated as described in Xie, Y. et al. “Cell division promotes efficient retrotransposition in a stable L1 reporter cell line,” Mobile DNA (2013) 4:10. Single cell clones were screened for high Luciferase expression and the highest expression Firefly expressing clone was chosen for compound testing.
Test compounds were serially diluted in DMSO and spotted in 96-well plates. Subsequently, the HeLa Li artificial-intron reporter cells were plated into the compound-containing wells (8,000 cells/well), and the cells were induced for reporter expression with doxycycline (Sigma-Aldrich cat #D9891) at a final concentration of 500 ng/mL. Luminescence was measured 72 h after plating using the Dual-Glo Luciferase Assay System (Promega cat #E2940) following the manufacturer's instructions. The Firefly Luciferase activity was used to report LINE1 activity.

T1 sequence (O00370 whole entry, looked up): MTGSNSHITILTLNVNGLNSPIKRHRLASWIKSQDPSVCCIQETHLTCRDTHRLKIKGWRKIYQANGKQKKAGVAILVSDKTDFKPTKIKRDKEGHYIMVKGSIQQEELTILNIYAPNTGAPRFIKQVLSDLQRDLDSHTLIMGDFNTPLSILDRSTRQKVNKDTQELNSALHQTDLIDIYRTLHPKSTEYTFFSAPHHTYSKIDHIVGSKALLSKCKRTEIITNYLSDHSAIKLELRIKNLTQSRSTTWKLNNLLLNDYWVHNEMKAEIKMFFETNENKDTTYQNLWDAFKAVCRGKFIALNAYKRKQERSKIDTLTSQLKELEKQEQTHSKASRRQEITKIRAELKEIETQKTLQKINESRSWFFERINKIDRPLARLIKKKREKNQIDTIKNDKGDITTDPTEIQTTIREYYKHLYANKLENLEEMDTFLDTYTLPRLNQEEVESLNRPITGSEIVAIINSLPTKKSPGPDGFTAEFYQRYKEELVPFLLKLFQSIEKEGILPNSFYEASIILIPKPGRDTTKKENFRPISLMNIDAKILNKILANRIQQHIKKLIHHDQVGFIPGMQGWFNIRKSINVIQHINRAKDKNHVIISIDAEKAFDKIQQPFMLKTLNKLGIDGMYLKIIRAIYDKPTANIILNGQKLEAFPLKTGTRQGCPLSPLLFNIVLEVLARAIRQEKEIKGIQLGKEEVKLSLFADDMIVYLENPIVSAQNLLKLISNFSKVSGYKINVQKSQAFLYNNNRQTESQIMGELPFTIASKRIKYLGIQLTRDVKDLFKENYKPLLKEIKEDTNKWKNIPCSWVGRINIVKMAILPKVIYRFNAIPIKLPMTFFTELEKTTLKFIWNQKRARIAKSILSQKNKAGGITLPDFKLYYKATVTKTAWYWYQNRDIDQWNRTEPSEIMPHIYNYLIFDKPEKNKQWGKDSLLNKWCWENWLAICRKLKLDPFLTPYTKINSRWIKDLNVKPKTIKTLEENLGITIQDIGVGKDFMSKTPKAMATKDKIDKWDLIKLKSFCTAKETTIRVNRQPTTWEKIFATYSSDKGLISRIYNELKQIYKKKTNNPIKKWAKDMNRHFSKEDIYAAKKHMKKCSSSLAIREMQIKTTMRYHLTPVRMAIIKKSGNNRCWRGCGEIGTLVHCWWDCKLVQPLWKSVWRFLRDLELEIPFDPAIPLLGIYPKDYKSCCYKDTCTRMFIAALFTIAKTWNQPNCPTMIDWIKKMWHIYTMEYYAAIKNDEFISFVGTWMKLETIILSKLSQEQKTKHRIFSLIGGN

Compound | IC50 [µM]
O=c1ccn([C@@H]2OC(CO)(CO)[C@@H](O)[C@@H]2F)c(=O)[nH]1 [Compound 3, 1-((2R,3S,4R)-3-fluoro-4-hydroxy-5,5-bis(hydroxymethyl)tetrahydrofuran-2-yl)pyrimidine-2,4(1H,3H)-dione] | > 1
Cc1cn([C@H]2C[C@H](O)[C@](CO)(CCl)O2)c(=O)[nH]c1=O [Compound 4, 1-((2R,4S,5R)-5-(chloromethyl)-4-hydroxy-5-(hydroxymethyl)tetrahydrofuran-2-yl)-5-methylpyrimidine-2,4(1H,3H)-dione] | > 1
C#C[C@]1(CO)O[C@@H](n2cnc3c(N)nc(Cl)nc32)[C@@H](F)[C@@H]1O [Compound 5, (2R,3R,4S,5R)-5-(6-amino-2-chloro-9H-purin-9-yl)-2-ethynyl-4-fluoro-2-(hydroxymethyl)tetrahydrofuran-3-ol] | 0.05 to 0.1
O=c1nc(NO)ccn1[C@H]1C[C@H](O)[C@](CO)(CCl)O1 [Compound 6, 1-((2R,4S,5R)-5-(chloromethyl)-4-hydroxy-5-(hydroxymethyl)tetrahydrofuran-2-yl)-4-(hydroxyamino)pyrimidin-2(1H)-one] | 0.1 to 0.25
Cc1cn([C@H]2C[C@H](F)[C@](CO)(CCl)O2)c(=O)[nH]c1=O [Compound 7, 1-((2R,4S,5R)-5-(chloromethyl)-4-fluoro-5-(hydroxymethyl)tetrahydrofuran-2-yl)-5-methylpyrimidine-2,4(1H,3H)-dione] | > 1
Nc1nc(F)nc2c1ncn2[C@H]1C[C@H](O)[C@](CO)(CCl)O1 [Compound 8, (2R,3S,5R)-5-(6-amino-2-fluoro-9H-purin-9-yl)-2-(chloromethyl)-2-(hydroxymethyl)tetrahydrofuran-3-ol] | 0.1 to 0.25
Cc1cn([C@@H]2O[C@@](CO)(CCl)[C@@H](O)[C@H]2F)c(=O)[nH]c1=O [Compound 9, 1-((2R,3R,4R,5R)-5-(chloromethyl)-3-fluoro-4-hydroxy-5-(hydroxymethyl)tetrahydrofuran-2-yl)-5-methylpyrimidine-2,4(1H,3H)-dione] | > 1
Nc1nc(F)nc2c1ncn2[C@H]1C[C@H](O)C(CO)(CO)O1 [Compound 10, ((3S,5R)-5-(6-amino-2-fluoro-9H-purin-9-yl)-3-hydroxytetrahydrofuran-2,2-diyl)dimethanol] | > 1
Cc1cn([C@H]2C[C@H](O)[C@](CO)(CCl)O2)c(=O)nc1N [Compound 11, 4-amino-1-((2R,4S,5R)-5-(chloromethyl)-4-hydroxy-5-(hydroxymethyl)tetrahydrofuran-2-yl)-5-methylpyrimidin-2(1H)-one] | > 1
C[C@@H]1[C@H](n2ccc(N)nc2=O)O[C@@](CO)(CCl)[C@H]1O [Compound 12, 4-amino-1-((2R,3S,4S,5R)-5-(chloromethyl)-4-hydroxy-5-(hydroxymethyl)-3-methyltetrahydrofuran-2-yl)pyrimidin-2(1H)-one] | 0.25 to 1
CO[C@@H]1[C@H](n2ccc(N)nc2=O)O[C@@](CO)(CCl)[C@H]1O [Compound 13, 4-amino-1-((2R,3S,4S,5R)-5-(chloromethyl)-4-hydroxy-5-(hydroxymethyl)-3-methoxytetrahydrofuran-2-yl)pyrimidin-2(1H)-one] | 0.25 to 1
Nc1ncnc2c1ncn2[C@H]1C[C@H](O)[C@](CO)(CCl)O1 [Compound 15, (2R,3S,5R)-5-(6-amino-9H-purin-9-yl)-2-(chloromethyl)-2-(hydroxymethyl)tetrahydrofuran-3-ol] | 0.25 to 1
Nc1ccn([C@H]2C[C@H](O)[C@](CO)(C3CC3)O2)c(=O)n1 [Compound 16, 4-amino-1-((2R,4S,5R)-5-cyclopropyl-4-hydroxy-5-(hydroxymethyl)tetrahydrofuran-2-yl)pyrimidin-2(1H)-one] | 0.25 to 1
Nc1cnn([C@H]2C[C@H](O)[C@](CO)(CCl)O2)c(=O)n1 [Compound 18, 5-amino-2-((2R,4S,5R)-5-(chloromethyl)-4-hydroxy-5-(hydroxymethyl)tetrahydrofuran-2-yl)-1,2,4-triazin-3(2H)-one] | > 1
C[C@@H]1[C@H](n2ccc(N)nc2=O)O[C@](C)(CO)[C@H]1O [Compound 19, 4-amino-1-((2R,3S,4S,5R)-4-hydroxy-5-(hydroxymethyl)-3,5-dimethyltetrahydrofuran-2-yl)pyrimidin-2(1H)-one] | 0.25 to 1
C#C[C@@H]1[C@H](n2ccc(N)nc2=O)O[C@](C)(CO)[C@H]1O [Compound 20, 4-amino-1-((2R,3S,4S,5R)-3-ethynyl-4-hydroxy-5-(hydroxymethyl)-5-methyltetrahydrofuran-2-yl)pyrimidin-2(1H)-one] | > 1
Nc1ccn([C@H]2C[C@H](O)[C@](CO)(C(F)(F)F)O2)c(=O)n1 [Compound 21, 4-amino-1-((2R,4S,5R)-4-hydroxy-5-(hydroxymethyl)-5-(trifluoromethyl)tetrahydrofuran-2-yl)pyrimidin-2(1H)-one] | 0.25 to 1
Nc1nc(=O)n([C@H]2C[C@H](O)[C@](CO)(CF)O2)cc1F [Compound 22, 4-amino-5-fluoro-1-((2R,4S,5R)-5-(fluoromethyl)-4-hydroxy-5-(hydroxymethyl)tetrahydrofuran-2-yl)pyrimidin-2(1H)-one] | ≤ 0.05
CC(C)C(=O)OC[C@@]1(CCl)O[C@@H](n2ccc(N)nc2=O)[C@H](F)[C@@H]1OC(=O)C(C)C [Compound 24, (2R,3R,4R,5R)-5-(4-amino-2-oxopyrimidin-1(2H)-yl)-2-(chloromethyl)-4-fluoro-2-((isobutyryloxy)methyl) tetrahydrofuran-3-yl isobutyrate] | 0.25 to 1
C#C[C@]1(CO)O[C@@H](n2cnc3c(N)ncnc32)C[C@@H]1O [Compound 27, (2R,3S,5R)-5-(6-amino-9H-purin-9-yl)-2-ethynyl-2-(hydroxymethyl) tetrahydrofuran-3-ol] | ≤ 0.05
O=c1nc(NO)ccn1[C@@H]1O[C@@](CO)(CCl)[C@@H](O)[C@H]1F [Compound 28, 1-((2R,3R,4R,5R)-5-(chloromethyl)-3-fluoro-4-hydroxy-5-(hydroxymethyl)tetrahydrofuran-2-yl)-4-(hydroxyamino)pyrimidin-2(1H)-one] | > 1
O=c1ccn([C@@H]2O[C@@](CO)(CCl)[C@@H](O)[C@H]2F)c(=O)[nH]1 [Compound 29, 1-((2R,3R,4R,5R)-5-(chloromethyl)-3-fluoro-4-hydroxy-5-(hydroxymethyl)tetrahydrofuran-2-yl)pyrimidine-2,4(1H,3H)-dione] | > 1
Cc1cn([C@H]2C[C@H](O)[C@](CO)(N=[N+]=[N-])O2)c(=O)[nH]c1=O [Compound 30, 1-((2R,4S,5R)-5-azido-4-hydroxy-5-(hydroxymethyl)tetrahydrofuran-2-yl)-5-methylpyrimidine-2,4(1H,3H)-dione] | > 1
Nc1ccn([C@@H]2O[C@@](CO)(CCl)[C@@H](O)[C@H]2F)c(=O)n1 [Compound 31, 4-amino-1-((2R,3R,4R,5R)-5-(chloromethyl)-3-fluoro-4-hydroxy-5-(hydroxymethyl)tetrahydrofuran-2-yl)pyrimidin-2(1H)-one] | ≤ 0.05
C#C[C@]1(CO)O[C@@H](n2ccc(N)nc2=O)[C@H](F)[C@@H]1O [Compound 32, 4-amino-1-((2R,3R,4R,5R)-5-ethynyl-3-fluoro-4-hydroxy-5-(hydroxymethyl)tetrahydrofuran-2-yl)pyrimidin-2(1H)-one] | > 1
C#C[C@]1(CO)O[C@@H](n2ccc(=O)[nH]c2=O)[C@H](F)[C@@H]1O [Compound 33, 1-((2R,3R,4R,5R)-5-ethynyl-3-fluoro-4-hydroxy-5-(hydroxymethyl)tetrahydrofuran-2-yl)pyrimidine-2,4(1H,3H)-dione] | > 1
C#C[C@]1(CO)O[C@@H](n2ccc(N)nc2=O)[C@@H](F)[C@@H]1O [Compound 35, 4-amino-1-((2R,3S,4R,5R)-5-ethynyl-3-fluoro-4-hydroxy-5-(hydroxymethyl)tetrahydrofuran-2-yl)pyrimidin-2(1H)-one] | ≤ 0.05
C#C[C@]1(CO)O[C@@H](n2ccc(=O)[nH]c2=O)[C@@H](F)[C@@H]1O [Compound 36, 1-((2R,3S,4R,5R)-5-ethynyl-3-fluoro-4-hydroxy-5-(hydroxymethyl)tetrahydrofuran-2-yl)pyrimidine-2,4(1H,3H)-dione] | > 1
C#C[C@]1(CO)O[C@@H](c2ccc3c(N)ncnn23)C[C@@H]1O [Compound 37, (2R,3S,5R)-5-(4-aminopyrrolo[2,1-f][1,2,4]triazin-7-yl)-2-ethynyl-2-(hydroxymethyl) tetrahydrofuran-3-ol] | ≤ 0.05
C#C[C@]1(CO)O[C@@H](n2cc(C)c(=O)[nH]c2=O)C[C@@H]1O [Compound 38, 1-((2R,4S,5R)-5-ethynyl-4-hydroxy-5-(hydroxymethyl)tetrahydrofuran-2-yl)-5-methylpyrimidine-2,4(1H,3H)-dione] | > 1

same assay, conditions: HeLa L1 artificial-intron reporter cells, doxycycline 500 ng/mL, 72 h, numeric bounds

Compound | IC50 [µM]
C#C[C@@H]1[C@H](n2ccc(N)nc2=O)O[C@@](CO)(CCl)[C@H]1O [Compound 17, 4-amino-1-((2R,3S,4S,5R)-5-(chloromethyl)-3-ethynyl-4-hydroxy-5-(hydroxymethyl)tetrahydrofuran-2-yl)pyrimidin-2(1H)-one] | > 30
O=c1ccn([C@H]2C[C@H](O)[C@](CO)(CCl)O2)c(=O)[nH]1 [Compound 34, 1-((2R,4S,5R)-5-(chloromethyl)-4-hydroxy-5-(hydroxymethyl)tetrahydrofuran-2-yl)pyrimidine-2,4(1H,3H)-dione] | > 30
